Experiments:
Assay type in all cases: cell-based
[1] = molecular target: T1, von Hippel-Lindau disease tumor suppressor/Androgen receptor (Homo sapiens) (UniProt P10275+P40337); experiment: Protac activity at VHL/AR in VHL siRNA-transfected human MCF7 cells assessed as induction of AR protein degradation by measuring AR protein level at 20 uM incubated for 8 hrs by western blot analysis relative to lamin B
[2] = molecular target: T2, von Hippel-Lindau disease tumor suppressor/Aryl hydrocarbon receptor (Homo sapiens, UniProt P35869+P40337); experiment: Protac activity at VHL/AhR in human MCF7 cells assessed as induction of AhR protein degradation by measuring AhR protein level at 20 uM incubated for 8 hrs in presence of ubiquitin activating inhibitor MLN7243 by western blot analysis relative to lamin B; conditions: mcf7, 8 h
[3] = molecular target: T2, von Hippel-Lindau disease tumor suppressor/Aryl hydrocarbon receptor; experiment: Protac activity at VHL/AhR in human MCF7 cells assessed as induction of AhR protein degradation by measuring AhR protein level at 20 uM incubated for 8 hrs by western blot analysis relative to lamin B; conditions: mcf7, 8 h
[4] = molecular target: T2, von Hippel-Lindau disease tumor suppressor/Aryl hydrocarbon receptor; experiment: Protac activity at VHL/AhR in human MCF7 cells assessed as induction of AhR protein degradation by measuring AhR protein level at 20 uM incubated for 24 hrs by western blot analysis relative to lamin B; conditions: mcf7, 24 h
[5] = molecular target: T2, von Hippel-Lindau disease tumor suppressor/Aryl hydrocarbon receptor; experiment: Protac activity at VHL/AhR in human MCF7 cells assessed as induction of AhR protein degradation by measuring AhR protein level at 5 uM incubated for 8 hrs by western blot analysis relative to lamin B; conditions: mcf7, 8 h
[6] = molecular target: T3, von Hippel-Lindau disease tumor suppressor/Estrogen receptor (Homo sapiens) (UniProt P03372+P40337); experiment: Protac activity at VHL/ERalpha in human MCF7 cells assessed as induction of ERalpha protein degradation by measuring ERalpha protein level at 5 uM incubated for 8 hrs by western blot analysis relative to lamin B
[7] = molecular target: T3, von Hippel-Lindau disease tumor suppressor/Estrogen receptor (Homo sapiens); experiment: Protac activity at VHL/ERalpha in VHL siRNA-transfected human MCF7 cells assessed as induction of ERalpha protein degradation by measuring ERalpha protein level at 20 uM incubated for 8 hrs by western blot analysis relative to lamin B
[8] = molecular target: T3, von Hippel-Lindau disease tumor suppressor/Estrogen receptor (Homo sapiens); experiment: Protac activity at VHL/ERalpha in human MCF7 cells assessed as induction of ERalpha protein degradation by measuring ERalpha protein level at 20 uM incubated for 8 hrs by western blot analysis relative to lamin B
[9] = molecular target: T3, von Hippel-Lindau disease tumor suppressor/Estrogen receptor (Homo sapiens); experiment: Protac activity at VHL/ERalpha in human MCF7 cells assessed as induction of ERalpha protein degradation by measuring ERalpha protein level at 20 uM incubated for 8 hrs in presence of proteasome inhibitor, MG132 by western blot analysis relative to lamin B
[10] = molecular target: T3, von Hippel-Lindau disease tumor suppressor/Estrogen receptor (Homo sapiens); experiment: Protac activity at VHL/ERalpha in human MCF7 cells assessed as induction of ERalpha protein degradation by measuring ERalpha protein level at 20 uM incubated for 24 hrs by western blot analysis relative to lamin B
[11] = molecular target: T1, von Hippel-Lindau disease tumor suppressor/Androgen receptor (Homo sapiens); experiment: Protac activity at VHL/AR in human MCF7 cells assessed as induction of AR protein degradation by measuring AR protein level at 10 uM incubated for 24 hrs by western blot analysis relative to lamin B
[12] = molecular target: T2, von Hippel-Lindau disease tumor suppressor/Aryl hydrocarbon receptor; experiment: Protac activity at VHL/AhR in human MCF7 cells assessed as induction of AhR protein degradation by measuring AhR protein level at 10 uM incubated for 8 hrs by western blot analysis relative to lamin B; conditions: mcf7, 8 h
[13] = molecular target: T2, von Hippel-Lindau disease tumor suppressor/Aryl hydrocarbon receptor; experiment: Protac activity at VHL/AhR in human MCF7 cells assessed as induction of AhR protein degradation by measuring AhR protein level at 20 uM incubated for 8 hrs in presence of proteasome inhibitor, MG132 by western blot analysis relative to lamin B; conditions: mcf7, 8 h
[14] = molecular target: T3, von Hippel-Lindau disease tumor suppressor/Estrogen receptor (Homo sapiens); experiment: Protac activity at VHL/ERalpha in human MCF7 cells assessed as induction of ERalpha protein degradation by measuring ERalpha protein level at 10 uM incubated for 24 hrs by western blot analysis relative to lamin B
[15] = molecular target: T2, von Hippel-Lindau disease tumor suppressor/Aryl hydrocarbon receptor; experiment: Protac activity at VHL/AhR in human MCF7 cells assessed as induction of AhR protein degradation by measuring AhR protein level at 5 uM incubated for 24 hrs by western blot analysis relative to lamin B; conditions: mcf7, 24 h
[16] = molecular target: T2, von Hippel-Lindau disease tumor suppressor/Aryl hydrocarbon receptor; experiment: Protac activity at VHL/AhR in human MCF7 cells assessed as induction of AhR protein degradation by measuring AhR protein level at 10 uM incubated for 24 hrs by western blot analysis relative to lamin B; conditions: mcf7, 24 h
[17] = molecular target: T1, von Hippel-Lindau disease tumor suppressor/Androgen receptor (Homo sapiens); experiment: Protac activity at VHL/AR in human MCF7 cells assessed as induction of AR protein degradation by measuring AR protein level at 5 uM incubated for 8 hrs by western blot analysis relative to lamin B
[18] = molecular target: T1, von Hippel-Lindau disease tumor suppressor/Androgen receptor (Homo sapiens); experiment: Protac activity at VHL/AR in human MCF7 cells assessed as induction of AR protein degradation by measuring AR protein level at 10 uM incubated for 8 hrs by western blot analysis relative to lamin B
[19] = molecular target: T3, von Hippel-Lindau disease tumor suppressor/Estrogen receptor (Homo sapiens); experiment: Protac activity at VHL/ERalpha in human MCF7 cells assessed as induction of ERalpha protein degradation by measuring ERalpha protein level at 5 uM incubated for 24 hrs by western blot analysis relative to lamin B
[20] = molecular target: T1, von Hippel-Lindau disease tumor suppressor/Androgen receptor (Homo sapiens); experiment: Protac activity at VHL/AR in human MCF7 cells assessed as induction of AR protein degradation by measuring AR protein level at 20 uM incubated for 8 hrs in presence of proteasome inhibitor, MG132 by western blot analysis relative to lamin B
[21] = molecular target: T3, von Hippel-Lindau disease tumor suppressor/Estrogen receptor (Homo sapiens); experiment: Protac activity at VHL/ERalpha in human MCF7 cells assessed as induction of ERalpha protein degradation by measuring ERalpha protein level at 10 uM incubated for 8 hrs by western blot analysis relative to lamin B
[22] = molecular target: T1, von Hippel-Lindau disease tumor suppressor/Androgen receptor (Homo sapiens); experiment: Protac activity at VHL/AR in human MCF7 cells assessed as induction of AR protein degradation by measuring AR protein level at 20 uM incubated for 8 hrs by western blot analysis relative to lamin B
[23] = molecular target: T1, von Hippel-Lindau disease tumor suppressor/Androgen receptor (Homo sapiens); experiment: Protac activity at VHL/AR in human MCF7 cells assessed as induction of AR protein degradation by measuring AR protein level at 20 uM incubated for 24 hrs by western blot analysis relative to lamin B
[24] = molecular target: T1, von Hippel-Lindau disease tumor suppressor/Androgen receptor (Homo sapiens); experiment: Protac activity at VHL/AR in human MCF7 cells assessed as induction of AR protein degradation by measuring AR protein level at 20 uM incubated for 8 hrs in presence of ubiquitin activating inhibitor MLN7243 by western blot analysis relative to lamin B
[25] = molecular target: T1, von Hippel-Lindau disease tumor suppressor/Androgen receptor (Homo sapiens); experiment: Protac activity at VHL/AR in human MCF7 cells assessed as induction of AR protein degradation by measuring AR protein level at 5 uM incubated for 24 hrs by western blot analysis relative to lamin B
[26] = molecular target: T3, von Hippel-Lindau disease tumor suppressor/Estrogen receptor (Homo sapiens); experiment: Protac activity at VHL/ERalpha in human MCF7 cells assessed as induction of ERalpha protein degradation by measuring ERalpha protein level at 20 uM incubated for 8 hrs in presence of ubiquitin activating inhibitor MLN7243 by western blot analysis relative to lamin B
[27] = molecular target: T3, von Hippel-Lindau disease tumor suppressor/Estrogen receptor (Homo sapiens); experiment: Protac activity at VHL/ERalpha in human MCF7 cells assessed as induction of ERalpha protein degradation incubated for 8 to 24 hrs by western blot analysis; conditions: time hrs 8-24
[28] = molecular target: T1, von Hippel-Lindau disease tumor suppressor/Androgen receptor (Homo sapiens); experiment: Protac activity at VHL/AR in human MCF7 cells assessed as induction of AR protein degradation incubated for 8 to 24 hrs by western blot analysis; conditions: time hrs 8-24

T1 sequence (P10275 whole entry, looked up): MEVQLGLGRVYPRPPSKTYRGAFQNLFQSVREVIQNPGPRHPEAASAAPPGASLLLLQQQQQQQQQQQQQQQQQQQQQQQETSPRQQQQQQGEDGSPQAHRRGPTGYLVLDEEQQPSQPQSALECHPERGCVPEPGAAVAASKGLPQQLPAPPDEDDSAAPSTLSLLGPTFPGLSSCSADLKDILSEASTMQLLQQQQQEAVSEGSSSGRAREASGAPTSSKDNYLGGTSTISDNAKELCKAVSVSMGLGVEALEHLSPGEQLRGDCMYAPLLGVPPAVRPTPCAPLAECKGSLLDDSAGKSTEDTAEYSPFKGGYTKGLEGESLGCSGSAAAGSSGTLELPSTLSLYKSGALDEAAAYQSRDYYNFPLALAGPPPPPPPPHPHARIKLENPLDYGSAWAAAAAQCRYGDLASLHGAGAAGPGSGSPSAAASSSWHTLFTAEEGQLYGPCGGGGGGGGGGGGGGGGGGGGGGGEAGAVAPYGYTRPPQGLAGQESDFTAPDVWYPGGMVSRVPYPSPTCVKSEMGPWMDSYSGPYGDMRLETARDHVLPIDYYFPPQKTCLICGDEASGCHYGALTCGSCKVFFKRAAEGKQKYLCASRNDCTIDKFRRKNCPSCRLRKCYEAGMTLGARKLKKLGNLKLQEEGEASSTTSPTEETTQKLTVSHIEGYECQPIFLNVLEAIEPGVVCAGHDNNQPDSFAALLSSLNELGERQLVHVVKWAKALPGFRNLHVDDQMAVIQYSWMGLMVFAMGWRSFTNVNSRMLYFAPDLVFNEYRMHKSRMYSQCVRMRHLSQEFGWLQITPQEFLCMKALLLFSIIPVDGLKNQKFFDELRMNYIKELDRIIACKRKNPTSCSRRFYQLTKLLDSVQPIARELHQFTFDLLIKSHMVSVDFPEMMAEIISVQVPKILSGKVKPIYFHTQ
T1 sequence (P40337 whole entry, looked up): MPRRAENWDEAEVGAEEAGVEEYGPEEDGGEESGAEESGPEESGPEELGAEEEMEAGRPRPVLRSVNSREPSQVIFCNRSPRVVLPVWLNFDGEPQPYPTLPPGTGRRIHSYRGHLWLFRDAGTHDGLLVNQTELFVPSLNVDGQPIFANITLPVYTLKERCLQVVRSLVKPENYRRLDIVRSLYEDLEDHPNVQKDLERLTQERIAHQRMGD
T2 sequence (P35869 whole entry): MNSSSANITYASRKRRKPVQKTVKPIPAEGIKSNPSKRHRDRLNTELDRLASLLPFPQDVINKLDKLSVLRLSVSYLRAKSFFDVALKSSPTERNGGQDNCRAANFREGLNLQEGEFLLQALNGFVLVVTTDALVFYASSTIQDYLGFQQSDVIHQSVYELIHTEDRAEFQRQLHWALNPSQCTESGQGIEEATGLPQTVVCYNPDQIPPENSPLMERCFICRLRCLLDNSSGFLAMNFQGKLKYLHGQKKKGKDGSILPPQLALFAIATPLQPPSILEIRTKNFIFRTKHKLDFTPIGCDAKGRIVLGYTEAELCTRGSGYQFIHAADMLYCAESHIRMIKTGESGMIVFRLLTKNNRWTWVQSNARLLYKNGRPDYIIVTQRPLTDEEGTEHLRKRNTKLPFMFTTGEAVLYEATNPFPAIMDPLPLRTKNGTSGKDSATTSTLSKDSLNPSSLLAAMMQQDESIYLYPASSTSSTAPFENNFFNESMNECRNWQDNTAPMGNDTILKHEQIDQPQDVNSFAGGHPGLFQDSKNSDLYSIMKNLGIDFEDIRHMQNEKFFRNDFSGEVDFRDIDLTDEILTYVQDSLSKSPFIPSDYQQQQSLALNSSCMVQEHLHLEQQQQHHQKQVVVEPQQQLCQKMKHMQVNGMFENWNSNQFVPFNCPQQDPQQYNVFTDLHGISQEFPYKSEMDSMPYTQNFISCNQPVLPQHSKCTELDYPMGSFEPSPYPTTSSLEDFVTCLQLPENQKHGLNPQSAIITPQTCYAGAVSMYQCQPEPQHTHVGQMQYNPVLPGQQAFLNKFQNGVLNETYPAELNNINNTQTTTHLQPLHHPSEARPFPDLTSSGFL
T2 sequence (P40337 whole entry): as the sequence (P40337 whole entry, looked up) above
T3 sequence (P03372 whole entry, looked up): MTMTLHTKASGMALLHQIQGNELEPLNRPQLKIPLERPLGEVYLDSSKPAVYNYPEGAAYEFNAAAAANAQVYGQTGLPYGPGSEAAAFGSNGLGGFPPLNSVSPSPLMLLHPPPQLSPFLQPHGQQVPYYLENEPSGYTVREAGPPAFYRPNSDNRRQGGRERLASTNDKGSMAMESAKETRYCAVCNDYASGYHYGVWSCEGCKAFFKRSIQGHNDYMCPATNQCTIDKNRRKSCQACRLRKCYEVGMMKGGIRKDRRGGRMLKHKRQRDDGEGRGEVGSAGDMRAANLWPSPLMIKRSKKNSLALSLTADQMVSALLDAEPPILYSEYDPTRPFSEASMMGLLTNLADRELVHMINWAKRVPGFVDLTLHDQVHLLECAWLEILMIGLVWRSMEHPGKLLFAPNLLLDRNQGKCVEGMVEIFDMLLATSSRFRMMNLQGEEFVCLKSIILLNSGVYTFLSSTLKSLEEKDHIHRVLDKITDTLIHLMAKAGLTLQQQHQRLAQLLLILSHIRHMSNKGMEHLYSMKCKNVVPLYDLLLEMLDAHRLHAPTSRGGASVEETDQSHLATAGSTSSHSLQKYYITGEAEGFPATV
T3 sequence (P40337 whole entry, looked up): as the sequence (P40337 whole entry, looked up) above

## CC[C@H](C)[C@@H]1NC(=O)[C@H](NC(=O)[C@@H](N)CCCCNC(=O)CCCCC(=O)NCCOCCOCCOCC(=O)N[C@H](C(=O)N2C[C@H](O)C[C@H]2C(=O)NCc2ccc(-c3scnc3C)cc2)C(C)(C)C)CSSC[C@@H](C(=O)N[C@@H](CCCNC(=N)N)C(=O)N[C@@H](CC(C)(C)C)C(=O)N[C@@H](CC(C)C)C(=O)N[C@@H](CCC(N)=O)C(=O)NCC(=O)NCC(=O)NCC(=O)N[C@@H](CCCNC(=N)N)C(=O)N[C@@H](CCCNC(=N)N)C(=O)N[C@@H](CCCNC(=N)N)C(=O)N[C@@H](CCCNC(=N)N)C(=O)N[C@@H](CCCNC(=N)N)C(=O)N[C@@H](CCCNC(=N)N)C(=O)N[C@@H](CCCNC(=N)N)C(N)=O)NC(=O)[C@H](CC(C)C)NC1=O
[1]
  Activity: 98%
[2]
  Activity: 101%
[3]
  Activity: 105%
[4]
  Activity: 97%
[5]
  Activity: 84%
[6]
  Activity: 93%
[7]
  Activity: 84%
[8]
  Activity: 64%
[9]
  Activity: 92%
[10]
  Activity: 57%
[11]
  Activity: 103%
[12]
  Activity: 105%
[13]
  Activity: 113%
[14]
  Activity: 76%
[15]
  Activity: 83%
[16]
  Activity: 100%
[17]
  Activity: 92%
[18]
  Activity: 75%
[19]
  Activity: 86%
[20]
  Activity: 97%
[21]
  Activity: 84%
[22]
  Activity: 54%
[23]
  Activity: 90%
[24]
  Activity: 102%
[25]
  Activity: 97%
[26]
  Activity: 108%
[27]
  Activity: Dose-dependent effect
[28]
  Activity: Dose-dependent effect

— ChEMBL document CHEMBL4725279, “Design and synthesis of peptide-based chimeric molecules to induce degradation of the estrogen and androgen receptors” (Bioorg Med Chem, 2020)
